From patent US20230227435A1, “SMALL MOLECULE MODULATORS OF IL-17” (LEO PHARMA A/S, priority 2020, published 2023)

Target: T1, human IL-17AA (Homo sapiens, UniProt Q16552)
T1 construct: host or cells: HEK (human embryonic kidney) cells
T1 sequence (Q16552 24-155) 1: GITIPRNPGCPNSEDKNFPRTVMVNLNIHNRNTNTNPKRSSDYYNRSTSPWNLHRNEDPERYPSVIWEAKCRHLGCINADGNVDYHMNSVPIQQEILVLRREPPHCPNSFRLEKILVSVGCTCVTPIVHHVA
T1 sequence (Q16552 24-155) 2: T1 sequence (Q16552 24-155) 1
Assay: IL-8 release assay in human epithelial keratinocytes adult (HEKa)
Format: cell-based
Settings: HEKa cells; 3 ng/mL HEK-human IL-17AA + 10 ng/mL human TNFalpha; 68-72 hours; IL-8 by HTRF; read-out: Rel EC50 IL-8 release assay
Procedure: Example 8: IL-8 Release Assay in Human Epithelial Keratinocytes Adult (HEKa)
Keratinocytes were seeded at 3500 cells/well in 384-well ViewPlates (Perkin Elmer) in Epilife medium (Thermo Fisher) containing human keratinocyte growth supplement (HKGS) without hydrocortisone and incubated in a humid incubator at 37° C., 5% CO2, overnight. The following day growth medium was removed and 25 μl fresh Epilife medium was added. 75 nL test compound in100% DMSO was added into each well reserved for test compounds, by the use of acoustic pipetting. The remaining wells received an equal volume of DMSO only, as vehicle control, or terfenadine in DMSO, as a positive control for any cytotoxic compounds. Subsequently, another 25 μL Epilife medium was added to each well. Finally, wells containing test compounds and wells prepared to yield maximum stimulation received 25 μL of 9 ng/mL recombinant, human embryonic kidney cell (HEK)-derived human IL-17AA+30 ng/mL human TNF-alpha, in Epilife medium. Wells prepared to define 100% inhibition of IL-17 effects received 25 μL of 30 ng/mL human TNF-alpha alone, in Epilife medium. Final concentrations were 3 ng/mL HEK-human IL-17AA+10 ng/mL human TNFalpha (maximum stimulation) and 10 ng/mL human TNFalpha alone (100% inhibition, Emax), respectively. Cells were incubated for 68-72 hours in the incubator. IL-8 released from the cells was measured by the use of a commercial homogenous time-resolved fluorescence (HTRF) assay (CisBio). 2 μL cell culture supernatant was transferred to a 384-well Proxiplate. 5 μL HTRF reagent was added and the plates were incubated sealed in the dark for 3-22 hours at room temperature. Time-resolved fluorescence was read at 665 vs 620 nm, with excitation at 320 nm, and IL-8 levels were calculated as percent of controls. Reduction of the amount of secreted IL-8 indicates decreased IL-17 signaling. Concentration response curves were fitted by the use of a four-parameter logistic equation. Relative IC50 and Emax were reported from curves showing acceptable fit (r^2>0.9). Cytotoxicity was measured in the cell-containing Viewplates following addition of 7 μL PrestoBlue (Thermo Fisher) and incubation for 2.5-3 hours at room temperature, by measuring fluorescence at 615 nm (excitation at 535 nm). Fluorescence was directly proportional to the amount of metabolic activity. Reduction of fluorescence signal indicated cytotoxicity.
Compounds of the present invention were tested in the IL-8 release assay in human epithelial keratinocytes.

Structure (SMILES)	EC50 [µM]
Cc1n[nH]c(C)c1-c1ccc(NC(=O)C(c2nnc(-c3ccnn3C3CC3)[nH]2)C(C2CC2)C2CC2)cc1 (stereo not drawn) [Example 44, 3,3-dicyclopropyl-2-[5-(2-cyclopropylpyrazol-3-yl)-4H-1,2,4-triazol-3-yl]-N-[4-(3,5-dimethyl-1H-pyrazol-4-yl)phenyl]propanamide]	0.077
Cc1n[nH]c(C)c1-c1ccc(NC(=O)C(c2nc(F)c(-c3ccccc3)[nH]2)C(C2CC2)C2CC2)cc1 (stereo not drawn) [Example 72, 3,3-dicyclopropyl-N-[4-(3,5-dimethyl-1H-pyrazol-4-yl)phenyl]-2-(4-fluoro-5-phenyl-1H-imidazol-2-yl)propanamide]	0.26
Cc1n[nH]c(C)c1-c1ccc(NC(=O)C(c2nnc(-c3c(C)noc3C)[nH]2)C(C2CC2)C2CC2)cc1 (stereo not drawn) [Example 32, 3,3-dicyclopropyl-2-[5-(3,5-dimethylisoxazol-4-yl)-4H-1,2,4-triazol-3-yl]-N-[4-(3,5-dimethyl-1H-pyrazol-4-yl)phenyl]propanamide]	0.91
CCn1nccc1-c1cnc(C(C(=O)Nc2ccc(-c3c(C)n[nH]c3C)cc2)C(C2CC2)C2CC2)[nH]1 (stereo not drawn) [Example 67, 3,3-dicyclopropyl-N-[4-(3,5-dimethyl-1H-pyrazol-4-yl)phenyl]-2-[5-(2-ethylpyrazol-3-yl)-1H-imidazol-2-yl]propanamide]	0.21
Cc1n[nH]c(C)c1-c1ccc(NC(=O)C(c2nnc(-c3c(C)n[nH]c3C)[nH]2)C(C2CC2)C2CC2)cc1 (stereo not drawn) [Example 29, 3,3-dicyclopropyl-N-[4-(3,5-dimethyl-1H-pyrazol-4-yl)phenyl]-2-[5-(3,5-dimethyl-1H-pyrazol-4-yl)-4H-1,2,4-triazol-3-yl]propanamide]	1.4
Cc1n[nH]c(C)c1-c1ccc(NC(=O)C(c2ncc(-c3ccnn3C(C)C)[nH]2)C(C2CC2)C2CC2)cc1 (stereo not drawn) [Example 68, 3,3-dicyclopropyl-N-[4-(3,5-dimethyl-1H-pyrazol-4-yl)phenyl]-2-[5-(2-isopropylpyrazol-3-yl)-1H-imidazol-2-yl]propanamide]	0.17
Cc1n[nH]c(C)c1-c1ccc(NC(=O)C(c2nnc(C3CCCC3)[nH]2)C(C2CC2)C2CC2)cc1 (stereo not drawn) [Example 10, 2-(5-cyclopentyl-4H-1,2,4-triazol-3-yl)-3,3-dicyclopropyl-N-[4-(3,5-dimethyl-1H-pyrazol-4-yl)phenyl]propanamide]	1.9
Cc1n[nH]c(C)c1-c1ccc(NC(=O)C(c2nnc(-c3ccnn3CC(F)(F)F)[nH]2)C(C2CC2)C2CC2)cc1 (stereo not drawn) [Example 26, 3,3-dicyclopropyl-N-[4-(3,5-dimethyl-1H-pyrazol-4-yl)phenyl]-2-[5-[2-(2,2,2-trifluoroethyl)pyrazol-3-yl]-4H-1,2,4-triazol-3-yl]propanamide]	0.024
Cc1n[nH]c(C)c1-c1ccc(NC(=O)C(c2nnc(-c3ccnn3C(C)C)[nH]2)C(C2CC2)C2CC2)cc1 (stereo not drawn) [Example 43, 3,3-dicyclopropyl-N-[4-(3,5-dimethyl-1H-pyrazol-4-yl)phenyl]-2-[5-(2-isopropylpyrazol-3-yl)-4H-1,2,4-triazol-3-yl]propanamide]	0.066
Cc1n[nH]c(C)c1-c1ccc(NC(=O)C(c2nnc(-c3ccnn3C(C)C)[nH]2)C(C2CC2)C2CC2)cc1 (single isomer, unassigned) [Example 70, 3,3-dicyclopropyl-N-[4-(3,5-dimethyl-1H-pyrazol-4-yl)phenyl]-2-[5-(2-isopropylpyrazol-3-yl)-4H-1,2,4-triazol-3-yl]propanamide]	0.027
Cc1n[nH]c(C)c1-c1ccc(NC(=O)C(c2nnc(Cc3cccnc3)[nH]2)C(C2CC2)C2CC2)cc1 (stereo not drawn) [Example 15, 3,3-dicyclopropyl-N-[4-(3,5-dimethyl-1H-pyrazol-4-yl)phenyl]-2-[5-(3-pyridylmethyl)-4H-1,2,4-triazol-3-yl]propanamide]	0.35

Second part, the molecule after the results:

EC50 [µM]	Structure (SMILES)
0.43	Cc1n[nH]c(C)c1-c1ccc(NC(=O)C(c2nnc(-c3ccn(C)c(=O)c3)[nH]2)C(C2CC2)C2CC2)cc1 (stereo not drawn) [Example 22, 3,3-dicyclopropyl-N-[4-(3,5-dimethyl-1H-pyrazol-4-yl)phenyl]-2-[5-(1-methyl-2-oxo-4-pyridyl)-4H-1,2,4-triazol-3-yl]propanamide]
0.27	Cc1n[nH]c(C)c1-c1ccc(NC(=O)C(c2nnc(-c3cnn(C(C)C)c3)[nH]2)C(C2CC2)C2CC2)cc1 (stereo not drawn) [Example 30, 3,3-dicyclopropyl-N-[4-(3,5-dimethyl-1H-pyrazol-4-yl)phenyl]-2-[5-(1-isopropylpyrazol-4-yl)-4H-1,2,4-triazol-3-yl]propanamide]
0.5	Cc1n[nH]cc1-c1nnc(C(C(=O)Nc2ccc(-c3c(C)n[nH]c3C)cc2)C(C2CC2)C2CC2)[nH]1 (stereo not drawn) [Example 39, 3,3-dicyclopropyl-N-[4-(3,5-dimethyl-1H-pyrazol-4-yl)phenyl]-2-[5-(3-methyl-1H-pyrazol-4-yl)-4H-1,2,4-triazol-3-yl]propanamide]
0.62	COc1ccccc1-c1nnc(C(C(=O)Nc2ccc(-c3c(C)n[nH]c3C)cc2)C(C2CC2)C2CC2)[nH]1 (stereo not drawn) [Example 19, 3,3-dicyclopropyl-N-[4-(3,5-dimethyl-1H-pyrazol-4-yl)phenyl]-2-[5-(2-methoxyphenyl)-4H-1,2,4-triazol-3-yl]propanamide]
0.43	Cc1n[nH]c(C)c1-c1ccc(NC(=O)C(c2nnc(-c3cccnc3)[nH]2)C(C2CC2)C2CC2)cc1 (stereo not drawn) [Example 31, 3,3-dicyclopropyl-N-[4-(3,5-dimethyl-1H-pyrazol-4-yl)phenyl]-2-[5-(3-pyridyl)-4H-1,2,4-triazol-3-yl]propanamide]
0.14	Cc1cc(-c2nnc(C(C(=O)Nc3ccc(-c4c(C)n[nH]c4C)cc3)C(C3CC3)C3CC3)[nH]2)ccn1 (stereo not drawn) [Example 28, 3,3-dicyclopropyl-N-[4-(3,5-dimethyl-1H-pyrazol-4-yl)phenyl]-2-[5-(2-methyl-4-pyridyl)-4H-1,2,4-triazol-3-yl]propanamide]
0.25	Cc1cccnc1-c1nnc(C(C(=O)Nc2ccc(-c3c(C)n[nH]c3C)cc2)C(C2CC2)C2CC2)[nH]1 (stereo not drawn) [Example 60, 3,3-dicyclopropyl-N-[4-(3,5-dimethyl-1H-pyrazol-4-yl)phenyl]-2-[5-(3-methyl-2-pyridyl)-4H-1,2,4-triazol-3-yl]propanamide]
0.045	Cc1cccc(-c2nnc(C(C(=O)Nc3ccc(-c4c(C)n[nH]c4C)cc3)C(C3CC3)C3CC3)[nH]2)n1 (stereo not drawn) [Example 59, 3,3-dicyclopropyl-N-[4-(3,5-dimethyl-1H-pyrazol-4-yl)phenyl]-2-[5-(6-methyl-2-pyridyl)-4H-1,2,4-triazol-3-yl]propanamide]
0.13	COc1cncc(-c2nnc(C(C(=O)Nc3ccc(-c4c(C)n[nH]c4C)cc3)C(C3CC3)C3CC3)[nH]2)c1 (stereo not drawn) [Example 48, 3,3-dicyclopropyl-N-[4-(3,5-dimethyl-1H-pyrazol-4-yl)phenyl]-2-[5-(5-methoxy-3-pyridyl)-4H-1,2,4-triazol-3-yl]propanamide]
0.16	COc1cc(-c2nnc(C(C(=O)Nc3ccc(-c4c(C)n[nH]c4C)cc3)C(C3CC3)C3CC3)[nH]2)ccn1 (stereo not drawn) [Example 35, 3,3-dicyclopropyl-N-[4-(3,5-dimethyl-1H-pyrazol-4-yl)phenyl]-2-[5-(2-methoxy-4-pyridyl)-4H-1,2,4-triazol-3-yl]propanamide]
0.46	COc1ncccc1-c1nnc(C(C(=O)Nc2ccc(-c3c(C)n[nH]c3C)cc2)C(C2CC2)C2CC2)[nH]1 (stereo not drawn) [Example 49, 3,3-dicyclopropyl-N-[4-(3,5-dimethyl-1H-pyrazol-4-yl)phenyl]-2-[5-(2-methoxy-3-pyridyl)-4H-1,2,4-triazol-3-yl]propanamide]
0.48	Cc1n[nH]c(C)c1-c1ccc(NC(=O)C(c2nnc(-c3ccncc3)[nH]2)C(C2CC2)C2CC2)cc1 (stereo not drawn) [Example 33, 3,3-dicyclopropyl-N-[4-(3,5-dimethyl-1H-pyrazol-4-yl)phenyl]-2-[5-(4-pyridyl)-4H-1,2,4-triazol-3-yl]propanamide]
0.38	Cc1cnn(C)c1-c1nnc(C(C(=O)Nc2ccc(-c3c(C)n[nH]c3C)cc2)C(C2CC2)C2CC2)[nH]1 (stereo not drawn) [Example 37, 3,3-dicyclopropyl-N-[4-(3,5-dimethyl-1H-pyrazol-4-yl)phenyl]-2-[5-(2,4-dimethylpyrazol-3-yl)-4H-1,2,4-triazol-3-yl]propanamide]
